Measurements as given in patent US20220168427A1 (Ranok Therapeutics (Hangzhou) Co. Ltd., priority 2019, published 2022).
Counter-ions that a name gives are not always drawn.

Tests used:
HSP90α = HSP90α (Homo sapiens, UniProt P07900); test: HSP90α Binding Fluorescent Polarization (FP) Assay; settings: competition with FITC-geldanamycin; read-out: HSP90 Binding Potency
Summary of the method: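 Competitive FP assay in which compound displaces FITC-geldanamycin from recombinant HSP90α (28 μg/ml before addition) in BSA-containing buffer. Compounds in 3-fold series from 40 μM to 2.0 nM (dilution-plate concentrations), tested in duplicate. Readings after 30, 60 and 120 min at 25 °C; background-subtracted mP fitted to four-parameter log[inhibitor]-response curve.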

BRD4 (BD1+BD2) = biological target: T1, BRD4 (BD1+BD2) (Homo sapiens, UniProt O60885); settings: read-out: BRD4 Binding Potency
T1 construct: 1.8 μg/ml recombinant BRD4 (BD1+BD2 domains) protein

MV4-11 cells = test: MV4-11 Cell Cytotoxicity Assay; type: cell-based, human; settings: CCK-8; for IC50 at 72 h: human, MV4-11 cells
Description: % Inhibition=100−(D−B)/(S−B)*100%.
S: The absorbance of the maximum (cells with DMSO)
B: The absorbance of the minimum (medium with DMSO)

Row | Compound | IC50 (HSP90α) [nM] | IC50 (BRD4 (BD1+BD2)) [nM] | IC50 at 72 h (MV4-11 cells) [nM] | IC50 (MV4-11 cells; 72 hr) [nM]
1 | Cc1sc2c(c1C)C(c1ccc(Cl)cc1)=N[C@@H](CC(=O)NCc1ccc(CN3CCC(Cc4ccc(-n5c(C(=O)NCC(F)(F)F)nnc5-c5cc(C(C)C)c(O)cc5O)cc4)CC3)cc1)c1nnc(C)n1-2 [Compound 96, (S)-4-(4-((1-(4-((2-(4-(4-chlorophenyl)-2,3,9-trimethyl-6H-thieno[3,2-f][1,2,4]triazolo[4,3-a][1,4]diazepin-6-yl)acetamido)methyl)benzyl)piperidin-4-yl)methyl)phenyl)-5-(2,4-dihydroxy-5-isopropylphenyl)-N-(2,2,2-trifluoroethyl)-4H-1,2,4-triazole-3-carboxamide, trifluoroacetic acid] | 100 to 1000 | < 100 | < 100 | 
2 | CCc1cc(-c2nnc(C(=O)NCC(F)(F)F)n2-c2ccc(CC3CCN(CC4CCN(C(=O)C[C@@H]5N=C(c6ccc(Cl)cc6)c6c(sc(C)c6C)-n6c(C)nnc65)CC4)CC3)cc2)c(O)cc1O [Compound 86, (S)-4-(4-((1-((1-(2-(4-(4-chlorophenyl)-2,3,9-trimethyl-6H-thieno[3,2-f][1,2,4]triazolo[4,3-a][1,4]diazepin-6-yl)acetyl)piperidin-4-yl)methyl)piperidin-4-yl)methyl)phenyl)-5-(5-ethyl-2,4-dihydroxyphenyl)-N-(2,2,2-trifluoroethyl)-4H-1,2,4-triazole-3-carboxamide, trifluoroacetic acid] | 100 to 1000 | 100 to 1000 | < 100 | 
3 | Cc1sc2c(c1C)C(c1ccc(Cl)cc1)=N[C@@H](CC(=O)NCCOCCN[C@@H](C)C(=O)NC(C(=O)N1CCC[C@H]1C(=O)Nc1snnc1-c1ccccc1)C1CCCCC1)c1nnc(C)n1-2 (stereo in doubt) [Compound 127, (S)-1-((2S,5S)-14-((S)-4-(4-chlorophenyl)-2,3,9-trimethyl-6H-thieno[3,2-f][1,2,4]triazolo[4,3-a][1,4]diazepin-6-yl)-2-cyclohexyl-5-methyl-4,13-dioxo-9-oxa-3,6,12-triazatetradecanoyl)-N-(4-phenyl-1,2,3-thiadiazol-5-yl)pyrrolidine-2-carboxamide] | > 1000 | 100 to 1000 | 100 to 1000 | 
4 | Cc1sc2c(c1C)C(c1ccc(Cl)cc1)=N[C@@H](CC(=O)NCCOCCOCCN[C@@H](C)C(=O)N[C@H](C(=O)N1CCC[C@H]1C(=O)Nc1snnc1-c1ccccc1)C1CCCCC1)c1nnc(C)n1-2 [Compound 128, (S)-1-((2S,5S)-17-((S)-4-(4-chlorophenyl)-2,3,9-trimethyl-6H-thieno[3,2-f][1,2,4]triazolo[4,3-a][1,4]diazepin-6-yl)-2-cyclohexyl-5-methyl-4,16-dioxo-9,12-dioxa-3,6,15-triazaheptadecanoyl)-N-(4-phenyl-1,2,3-thiadiazol-5-yl)pyrrolidine-2-carboxamide] | > 1000 | > 1000 | > 1000 | 
5 | (S)—N-(4′-((1-((S)-(2-(4-(4-chlorophenyl)-2,3,9-trimethyl-6H-thieno[3,2-f][1,2,4]triazolo[4,3-a][1,4]diazepin-6-yl)acetyl)glycyl)piperidin-4-yl)oxy)-2′-(2-(dimethylamino)ethoxy)-[1,1′-biphenyl]-4-yl)-3′,6-dimethoxy-[1,1′-biphenyl]-3-carboxamide [Compound 137] | > 1000 | 100 to 1000 |  | 100 to 1000
6 | Cc1sc2c(c1C)C(c1ccc(Cl)cc1)=N[C@@H](CC(=O)NCC(=O)NCC1CN(C(=O)C3CCN(Cc4ccc(-n5c(O)nnc5-c5cc(C(C)C)c(O)cc5O)cc4)CC3)C1)c1nnc(C)n1-2 [Compound 60, 2-((6S)-4-(4-chlorophenyl)-2,3,9-trimethyl-6H-thieno[3,2-f][1,2,4]triazolo[4,3-a][1,4]diazepin-6-yl)-N-(2-(((1-(1-(4-(3-(2,4-dihydroxy-5-isopropylphenyl)-5-hydroxy-4H-1,2,4-triazol-4-yl)benzyl)piperidine-4-carbonyl)azetidin-3-yl)methyl)amino)-2-oxoethyl)acetamide, trifluoroacetic acid] | 100 to 1000 | 100 to 1000 | < 100 | 
7 | Cc1sc2c(c1C)C(c1ccc(Cl)cc1)=N[C@@H](CC(=O)NCCOCCOc1ccc(-n3c(S)nnc3-c3cc(C(C)C)c(O)cc3O)cc1)c1nnc(C)n1-2 [Compound 33, (S)-2-(4-(4-chlorophenyl)-2,3,9-trimethyl-6H-thieno[3,2-f][1,2,4]triazolo[4,3-a][1,4]diazepin-6-yl)-N-(2-(2-(4-(3-(2,4-dihydroxy-5-isopropylphenyl)-5-mercapto-4H-1,2,4-triazol-4-yl)phenoxy)ethoxy)ethyl)acetamide] | 100 to 1000 | 100 to 1000 | 100 to 1000 | 
8 | Cc1sc2c(c1C)C(c1ccc(Cl)cc1)=N[C@@H](CC(=O)NCCc1ccc(-n3c(O)nnc3-c3cc(C(C)C)c(O)cc3O)cc1)c1nnc(C)n1-2 [Compound 39, 2-((6S)-4-(4-chlorophenyl)-2,3,9-trimethyl-6H-thieno[3,2-f][1,2,4]triazolo[4,3-a][1,4]diazepin-6-yl)-N-(4-(3-(2,4-dihydroxy-5-isopropylphenyl)-5-hydroxy-4H-1,2,4-triazol-4-yl)phenethyl)acetamide] | 100 to 1000 | 100 to 1000 | < 100 | 
9 | Cc1sc2c(c1C)C(c1ccc(Cl)cc1)=N[C@@H](CC(=O)NCC(=O)NCC1CCN(C(=O)C3CCN(Cc4ccc(-n5c(O)nnc5-c5cc(C(C)C)c(O)cc5O)cc4)CC3)CC1)c1nnc(C)n1-2 [Compound 46, (S)-2-(4-(4-chlorophenyl)-2,3,9-trimethyl-6H-thieno[3,2-f][1,2,4]triazolo[4,3-a][1,4]diazepin-6-yl)-N-(2-(((1-(1-(4-(3-(2,4-dihydroxy-5-isopropylphenyl)-5-hydroxy-4H-1,2,4-triazol-4-yl)benzyl)piperidine-4-carbonyl)piperidin-4-yl)methyl)amino)-2-oxoethyl)acetamide, trifluoroacetic acid] | < 100 | < 100 | < 100 | 
10 | Cc1sc2c(c1C)C(c1ccc(Cl)cc1)=N[C@@H](CC(=O)NCC1CCN(C(=O)C3CCN(Cc4ccc(-n5c(O)nnc5-c5cc(C(C)C)c(O)cc5O)cc4)CC3)CC1)c1nnc(C)n1-2 [Compound 53, (S)-2-(4-(4-chlorophenyl)-2,3,9-trimethyl-6H-thieno[3,2-f][1,2,4]triazolo[4,3-a][1,4]diazepin-6-yl)-N-((1-(1-(4-(3-(2,4-dihydroxy-5-isopropylphenyl)-5-hydroxy-4H-1,2,4-triazol-4-yl)benzyl)piperidine-4-carbonyl)piperidin-4-yl)methyl)acetamide, trifluoroacetic acid] | 100 to 1000 | 100 to 1000 | < 100 | 
11 | CC[C@@H](C)Nc1cc(C(=O)NC2C[C@H]3CC[C@H](C2)N3c2ccc(C(=O)c3ccc(CN4CCN(CC5CCN(C(=O)C[C@@H]6N=C(c7ccc(Cl)cc7)c7c(sc(C)c7C)-n7c(C)nnc76)CC5)CC4)cc3)cn2)c(C)cc1C(N)=O (stereo partly drawn) [Compound 25, 5-(((R)-sec-butyl)amino)-N1-((1R,3r,5S)-8-(5-(4-((4-((1-(2-((S)-4-(4-chlorophenyl)-2,3,9-trimethyl-6H-thieno[3,2-f][1,2,4]triazolo[4,3-a][1,4]diazepin-6-yl)acetyl)piperidin-4-yl)methyl)piperazin-1-yl)methyl)benzoyl)pyridin-2-yl)-8-azabicyclo[3.2.1]octan-3-yl)-2-methylterephthalamide] | > 1000 | 100 to 1000 | 100 to 1000 | 
12 | Cc1sc2c(c1C)C(c1ccc(Cl)cc1)=N[C@H](CC(=O)N1CCC(CN3CCN(Cc4ccc(-n5c(O)nnc5-c5cc(C(C)C)c(O)cc5O)cc4)CC3)CC1)c1nnc(C)n1-2 [Compound 125, (R)-2-(4-(4-chlorophenyl)-2,3,9-trimethyl-6H-thieno[3,2-f][1,2,4]triazolo[4,3-a][1,4]diazepin-6-yl)-1-(4-((4-(4-(3-(2,4-dihydroxy-5-isopropylphenyl)-5-hydroxy-4H-1,2,4-triazol-4-yl)benzyl)piperazin-1-yl)methyl)piperidin-1-yl)ethan-1-one hydrochloride] | < 100 | > 1000 | < 100 | 
13 | CCN(CC)CCNC(=O)c1nnc(-c2cc(C(C)C)c(O)cc2O)n1-c1ccc(CN2CCN(CC3CCN(C(=O)C[C@@H]4N=C(c5ccc(Cl)cc5)c5c(sc(C)c5C)-n5c(C)nnc54)CC3)CC2)cc1 [Compound 118, (S)-4-(4-((4-((1-(2-(4-(4-chlorophenyl)-2,3,9-trimethyl-6H-thieno[3,2-f][1,2,4]triazolo[4,3-a][1,4]diazepin-6-yl)acetyl)piperidin-4-yl)methyl)piperazin-1-yl)methyl)phenyl)-N-(2-(diethylamino)ethyl)-5-(2,4-dihydroxy-5-isopropylphenyl)-4H-1,2,4-triazole-3-carboxamide, trifluoroacetic acid] | 100 to 1000 | < 100 | < 100 | 
14 | Cc1sc2c(c1C)C(c1ccc(Cl)cc1)=N[C@@H](CC(=O)N1CCN(Cc3ccc(-n4c(O)nnc4-c4cc(C(C)C)c(O)cc4O)cc3)CC1)c1nnc(C)n1-2 [Compound 38, 2-((6S)-4-(4-chlorophenyl)-2,3,9-trimethyl-6H-thieno[3,2-f][1,2,4]triazolo[4,3-a][1,4]diazepin-6-yl)-1-(4-(4-(3-(2,4-dihydroxy-5-isopropylphenyl)-5-hydroxy-4H-1,2,4-triazol-4-yl)benzyl)piperazin-1-yl)ethanone, trifluoroacetic acid] | 100 to 1000 | > 1000 | < 100 | 
15 | COc1cccc(-c2cc(C(=O)Nc3ccc(-c4ccc(OC5CCN(C)CC5)cc4OCCN(C)CC[C@@H]4N=C(c5ccc(Cl)cc5)c5c(sc(C)c5C)-n5c(C)nnc54)cc3)ccc2OC)c1 [Compound 135] | > 1000 | 100 to 1000 | 100 to 1000 | 
